Values joined by “and” are separate entries in the source; they are usually repeats but may differ in a detail not shown here. Identical values can stand only once. Like-named read-outs stand apart in the source and are kept apart here. Marks after values point to notes of the source that are not given here.
Key:
[1] = test system: LTB4 in Washed Human Leukocytes; assay: Inhibition of LTB4 in washed human leukocytes; format: cell-based; conditions: individual tests 1-4
[2] = test system: LTB4 in Human Whole Blood; assay: Human blood LTB4 inhibition assay; format: cell-based; conditions: individual tests 1-8
Description: A non-limiting example of such a human blood LTB4 inhibition assay is as follows: Blood was drawn from consenting human volunteers into heparinized tubes and 125 μL aliquots added to wells containing 2.5 μL 50% dimethylsulfoxide (vehicle) or 2.5 μL drug in 50% dimethylsulfoxide. Samples were incubated for 15 minutes at 37° C. 2 μL calcium ionophore A23817 (from a 50 mM dimethylsulfoxide stock diluted just prior to the assay in Hanks balanced salt solution (Invitrogen)) to 1.25 mM) was added, solutions mixed and incubated for 30 minutes at 37° C. Samples were centrifuged at 1,000 rpm (˜200×g) for 10 minutes at 4° C., plasma removed and a 1:100 dilution assayed for LTB4 concentration using ELISA (Assay Designs). Drug concentrations to achieve 50% inhibition (IC50's) of vehicle LTB4 were determined by nonlinear regression (Graphpad Prism) of % inhibition versus log drug concentration.

CYP2C19 = CYP2C19 (Homo sapiens (Human), UniProt P33261); assay: Extracellular cytochrome P450 inhibition (microsomes); format: in vitro ADME; conditions: concentrations up to and exceeding 40 μM
Excerpt: Final solvent concentrations were 1% (v/v) or less.

[3] = Plasma binding (equilibrium dialysis); format: in vitro ADME; conditions: read-out: % Bound (converted)
Description: (§1) Experiments were performed using equilibrium dialysis.

[4] = Plasma binding (equilibrium dialysis); format: in vitro ADME, Monkey (cynomologus); conditions: monkey plasma, read-out: % Bound (converted)
Description: as §1

[5] = Phase I study: pharmacokinetics after single and multiple oral doses; format: in vivo; conditions: human, plasma
Excerpt: (§2) Study Design: Single center, double-blind, randomized, placebo-controlled, single ascending dose followed by multiple ascending dose study.
(§3) Sample Size: (1) Single Dose Phase: eight (8) subjects (6 active, 2 placebo) per dose level; up to 5 dose levels are planned (a total of 40 subjects if all 5 dose levels are completed); and (2) Multiple Dose Phase: eight (8) subjects (6 active, 2 placebo) per dose level; up to 4 dose levels are planned (a total of 32 subjects if all 4 dose levels are completed).
(§4) Formulations: Compound 2 was supplied as an oral powder for reconstitution. Placebo solution matched. […] The placebo differed only in the absence of the active.
(§5) The following dosing cohorts were used:
(§6) Routes of Administration: All doses were administered orally with approximately 100 mL of water rinse. Subjects were fasted for at least 8 hours prior to dosing and for 2 hours after dosing. For BID dosing in the Multiple Dose Phase, when applicable, subjects were fasted for at least 2 hours prior to the second daily dose.
(§7) Plasma concentrations of Compound 1 were determined using a validated LC/MS method. Whole blood ionophore-stimulated leukotriene LTB4 and urinary LTE4 production were assayed by ELISA and mass spectrometry, respectively.
(§8) Analysis of Samples: Concentrations of Compound 1 was determined in plasma samples collected from subjects. Similarly, concentrations of LTB4 in plasma and urinary LTE4 were determined in blood and urine samples collected.

[6] = test system: whole blood ionophore-stimulated leukotriene LTB4; assay: Phase I study: ex vivo ionophore-stimulated LTB4; format: in vivo, human
Excerpt: as §2, §3, §4, §5, §6, §7, §8

human FLAP = human FLAP (Homo sapiens (Human), UniProt P20292); assay: FLAP binding assay (membrane radioligand binding); conditions: read-out: IC50, inhibition of FLAP radioligand binding; individual tests 1-8
CYP3A4 = CYP3A4 (Homo sapiens (Human), UniProt P08684); assay: Cellular cytochrome P450 induction in cryopreserved human hepatocytes; conditions: tested at 10 μM, midazolam substrate
[7] = oral, 10 mg, multiple dose 10 mg, Day 1
[8] = oral, 10 mg, multiple dose 10 mg, Day 11
[9] = oral, 50 mg, multiple dose 50 mg, Day 1
[10] = oral, 50 mg, multiple dose 50 mg, Day 11
[11] = oral, 150 mg, multiple dose 150 mg, Day 1
[12] = oral, 150 mg, multiple dose 150 mg, Day 11
[13] = oral, 450 mg, multiple dose 450 mg, Day 1
[14] = oral, 450 mg, multiple dose 450 mg, Day 11
[15] = po, 50 mg, single dose 50 mg, oral solution
[16] = po, 150 mg, single dose 150 mg, oral solution
[17] = po, 300 mg, single dose 300 mg, oral solution
[18] = po, 600 mg, single dose 600 mg, oral solution
[19] = po, 1000 mg, single dose 1000 mg, oral solution

Chain of human FLAP (P20292 whole entry): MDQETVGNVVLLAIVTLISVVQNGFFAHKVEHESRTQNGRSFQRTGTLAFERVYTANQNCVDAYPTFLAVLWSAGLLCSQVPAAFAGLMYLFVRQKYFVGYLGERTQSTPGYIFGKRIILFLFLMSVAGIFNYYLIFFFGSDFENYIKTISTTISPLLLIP
Chain of CYP3A4 (P08684 whole entry, looked up): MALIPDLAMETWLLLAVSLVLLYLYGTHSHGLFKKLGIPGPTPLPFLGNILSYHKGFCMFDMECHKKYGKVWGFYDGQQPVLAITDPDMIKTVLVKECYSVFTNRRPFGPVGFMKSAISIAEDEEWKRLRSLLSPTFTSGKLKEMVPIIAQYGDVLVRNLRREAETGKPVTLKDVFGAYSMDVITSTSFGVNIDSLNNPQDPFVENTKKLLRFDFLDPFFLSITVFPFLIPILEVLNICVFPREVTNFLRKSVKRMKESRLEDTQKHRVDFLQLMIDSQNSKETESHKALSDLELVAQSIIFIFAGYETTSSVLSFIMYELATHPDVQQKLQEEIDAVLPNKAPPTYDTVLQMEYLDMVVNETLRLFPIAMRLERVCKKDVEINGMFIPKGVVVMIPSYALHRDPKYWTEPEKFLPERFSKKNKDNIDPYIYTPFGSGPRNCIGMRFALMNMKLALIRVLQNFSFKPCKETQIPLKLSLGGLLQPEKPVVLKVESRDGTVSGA
Chain of CYP2C19 (P33261 whole entry): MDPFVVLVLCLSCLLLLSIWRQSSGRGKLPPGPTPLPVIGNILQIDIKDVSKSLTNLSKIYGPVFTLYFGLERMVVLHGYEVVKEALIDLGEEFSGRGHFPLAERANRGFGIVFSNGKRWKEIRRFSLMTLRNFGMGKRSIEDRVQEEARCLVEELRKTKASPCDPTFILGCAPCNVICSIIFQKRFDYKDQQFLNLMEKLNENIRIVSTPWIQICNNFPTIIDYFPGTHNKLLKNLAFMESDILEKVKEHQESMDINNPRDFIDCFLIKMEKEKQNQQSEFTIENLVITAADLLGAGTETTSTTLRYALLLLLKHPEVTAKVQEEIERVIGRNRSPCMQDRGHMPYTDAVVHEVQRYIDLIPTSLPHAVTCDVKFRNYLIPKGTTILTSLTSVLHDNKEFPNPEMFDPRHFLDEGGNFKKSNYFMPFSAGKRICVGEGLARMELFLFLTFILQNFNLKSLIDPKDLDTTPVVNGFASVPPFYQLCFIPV

IC50 [1]: 0.49 nM and 0.87 nM and 0.22 nM and 0.17 nM
IC90 [1]: 0.77 nM and 1.03 nM and 0.46 nM and 0.41 nM
IC50 [2]: 552 nM and 645 nM and 563 nM and 410 nM and 642 nM and 482 nM and 310 nM and 444 nM
IC90 [2]: 3440 nM and 1220 nM and 1550 nM and 810 nM and 1050 nM and 790 nM and 360 nM and 1240 nM
apparent inhibition (CYP2C19): No apparent inhibition
fraction unbound at 10 μM ([3]; human plasma): 0.005
fraction unbound at 10 μM ([3]; mixed breeds, dog plasma): 0.003
fraction unbound at 10 μM ([3]; mixed breeds, rat plasma): 0.002
fraction unbound at 10 μM [4]: 0.003
Cmax [5, 7]: 70 ± 10 nM
Tmax [5, 7]: 4 ± 3.1 h
AUC(0-t) ([5]; oral, 10 mg, multiple dose 10 mg, Day 1, read-out: AUClast): 1.1 ± 0.2 µM·h
half-life ([5]; oral, 10 mg, multiple dose 10 mg, Day 1, read-out: t½ (converted)): 32 ± 23 h
Cmax [5, 8]: 130 ± 50 nM
Tmax [5, 8]: 10 ± 6.9 h
AUC(0-t) ([5]; oral, 10 mg, multiple dose 10 mg, Day 11, read-out: AUClast): 2.4 ± 1.1 µM·h
half-life ([5]; oral, 10 mg, multiple dose 10 mg, Day 11, read-out: t½ (converted)): 50 ± 41 h
Cmax [5, 9]: 600 ± 200 nM
Tmax [5, 9]: 4.2 ± 3 h
AUC(0-t) ([5]; oral, 50 mg, multiple dose 50 mg, Day 1, read-out: AUClast): 8.3 ± 2.9 µM·h
half-life ([5]; oral, 50 mg, multiple dose 50 mg, Day 1, read-out: t½ (converted)): 19 ± 10 h
Cmax [5, 10]: 900 ± 100 nM
Tmax [5, 10]: 3.2 ± 2 h
AUC(0-t) ([5]; oral, 50 mg, multiple dose 50 mg, Day 11, read-out: AUClast): 13.5 ± 3.4 µM·h
half-life ([5]; oral, 50 mg, multiple dose 50 mg, Day 11, read-out: t½ (converted)): 25 ± 11 h
Cmax [5, 11]: 1400 ± 700 nM
Tmax [5, 11]: 2.3 ± 0.8 h
AUC(0-t) ([5]; oral, 150 mg, multiple dose 150 mg, Day 1, read-out: AUClast): 16 ± 6.8 µM·h
half-life ([5]; oral, 150 mg, multiple dose 150 mg, Day 1, read-out: t½ (converted)): 16 ± 7.7 h
Cmax [5, 12]: 3000 ± 1200 nM
Tmax [5, 12]: 2 h
AUC(0-t) ([5]; oral, 150 mg, multiple dose 150 mg, Day 11, read-out: AUClast): 33 ± 16 µM·h
half-life ([5]; oral, 150 mg, multiple dose 150 mg, Day 11, read-out: t½ (converted)): 19 ± 13 h
Cmax [5, 13]: 7300 ± 6000 nM
Tmax [5, 13]: 2 h
AUC(0-t) ([5]; oral, 450 mg, multiple dose 450 mg, Day 1, read-out: AUClast): 57 ± 39 µM·h
half-life ([5]; oral, 450 mg, multiple dose 450 mg, Day 1, read-out: t½ (converted)): 12 ± 4 h
Cmax [5, 14]: 9300 ± 5400 nM
Tmax [5, 14]: 2 h
AUC(0-t) ([5]; oral, 450 mg, multiple dose 450 mg, Day 11, read-out: AUClast): 76 ± 33 µM·h
half-life ([5]; oral, 450 mg, multiple dose 450 mg, Day 11, read-out: t½ (converted)): 14 ± 4 h
Cmax [5, 15]: 570 ± 300 nM
Tmax [5, 15]: 2.2 ± 0.4 h
AUC(0-t) ([5]; po, 50 mg, single dose 50 mg, oral solution, read-out: AUC0-24): 6.5 ± 2.2 µM·h
half-life ([5]; po, 50 mg, single dose 50 mg, oral solution, read-out: t1/2 (converted)): 12.8 ± 2.9 h
Cmax [5, 16]: 2200 ± 500 nM
Tmax [5, 16]: 2.3 ± 0.5 h
AUC(0-t) ([5]; po, 150 mg, single dose 150 mg, oral solution, read-out: AUC0-24): 21.7 ± 6.1 µM·h
half-life ([5]; po, 150 mg, single dose 150 mg, oral solution, read-out: t1/2 (converted)): 11.1 ± 2.8 h
Cmax [5, 17]: 3000 ± 1500 nM
Tmax [5, 17]: 2.7 ± 1.5 h
AUC(0-t) ([5]; po, 300 mg, single dose 300 mg, oral solution, read-out: AUC0-24): 23.6 ± 5.9 µM·h
half-life ([5]; po, 300 mg, single dose 300 mg, oral solution, read-out: t1/2 (converted)): 9.8 ± 2.5 h
Cmax [5, 18]: 11200 ± 7000 nM
Tmax [5, 18]: 2.3 ± 0.5 h
AUC(0-t) ([5]; po, 600 mg, single dose 600 mg, oral solution, read-out: AUC0-24): 90 ± 50 µM·h
half-life ([5]; po, 600 mg, single dose 600 mg, oral solution, read-out: t1/2 (converted)): 14.1 ± 6.8 h
Cmax [5, 19]: 18200 ± 7600 nM
Tmax [5, 19]: 2 h
AUC(0-t) ([5]; po, 1000 mg, single dose 1000 mg, oral solution, read-out: AUC0-24): 110 ± 49 µM·h
half-life ([5]; po, 1000 mg, single dose 1000 mg, oral solution, read-out: t1/2 (converted)): 8.3 ± 1.1 h
IC50 (human FLAP): 2.8 nM and 2.2 nM
CYP3A4 induction (CYP3A4): No apparent induction
SMILES: CCOc1ccc(-c2ccc(Cn3c(CC(C)(C)C(=O)[O-])c(SC(C)(C)C)c4cc(OCc5ccc(C)cn5)ccc43)cc2)cn1.[Na+] [Compound 2, sodium 3-[3-(tert-butylsulfanyl)-1-[4-(6-ethoxy-pyridin-3-yl)benzyl]-5-(5-methyl-pyridin-2-yl-methoxy)-1H-indol-2-yl]-2,2-dimethylpropionate]
tE>50% (time above 50% LTB4 inhibition) ([6]; multiple dose 10 mg, Day 1): 17.5 h
tE>90% (time above 90% LTB4 inhibition) ([6]; multiple dose 10 mg, Day 1): 0.0 h
tE>50% (time above 50% LTB4 inhibition) ([6]; multiple dose 10 mg, Day 11): 27.4 h
tE>90% (time above 90% LTB4 inhibition) ([6]; multiple dose 10 mg, Day 11): 0.0 h
tE>50% (time above 50% LTB4 inhibition) ([6]; multiple dose 50 mg, Day 1): >23.3 h
tE>90% (time above 90% LTB4 inhibition) ([6]; multiple dose 50 mg, Day 1): 0.0 h
tE>50% (time above 50% LTB4 inhibition) ([6]; multiple dose 50 mg, Day 11): 42.4 h
tE>90% (time above 90% LTB4 inhibition) ([6]; multiple dose 50 mg, Day 11): 10.0 h
tE>50% (time above 50% LTB4 inhibition) ([6]; multiple dose 150 mg, Day 1): >23.4 h
tE>90% (time above 90% LTB4 inhibition) ([6]; multiple dose 150 mg, Day 1): 15.1 h
tE>50% (time above 50% LTB4 inhibition) ([6]; multiple dose 150 mg, Day 11): >72.0 h
tE>90% (time above 90% LTB4 inhibition) ([6]; multiple dose 150 mg, Day 11): 52.4 h
tE>50% (time above 50% LTB4 inhibition) ([6]; multiple dose 450 mg, Day 1): >23.7 h
tE>90% (time above 90% LTB4 inhibition) ([6]; multiple dose 450 mg, Day 1): 17.4 h
tE>50% (time above 50% LTB4 inhibition) ([6]; multiple dose 450 mg, Day 11): >72.0 h
tE>90% (time above 90% LTB4 inhibition) ([6]; multiple dose 450 mg, Day 11): 50.4 h
LTB4 level at t = 24 hrs. ([6]; single dose 50 mg): 37 ± 4.7 % of baseline
tE>50% (time above 50% LTB4 inhibition) ([6]; single dose 50 mg, Day 1): 32.2 h
tE>90% (time above 90% LTB4 inhibition) ([6]; single dose 50 mg, Day 1): 0.0 h
LTB4 level at t = 24 hrs. ([6]; single dose 150 mg): 24 ± 4.4 % of baseline
tE>50% (time above 50% LTB4 inhibition) ([6]; single dose 150 mg, Day 1): 41.9 h
tE>90% (time above 90% LTB4 inhibition) ([6]; single dose 150 mg, Day 1): 14.2 h
LTB4 level at t = 24 hrs. ([6]; single dose 300 mg): 23 ± 8.3 % of baseline
tE>90% (time above 90% LTB4 inhibition) ([6]; single dose 300 mg, Day 1): 16.1 h
tE>50% (time above 50% LTB4 inhibition) ([6]; single dose 300 mg, Day 1, estimated): 30^# h
LTB4 level at t = 24 hrs. ([6]; single dose 600 mg): 1.6 ± 0.98 % of baseline
tE>50% (time above 50% LTB4 inhibition) ([6]; single dose 600 mg, Day 1): >71.7 h
tE>90% (time above 90% LTB4 inhibition) ([6]; single dose 600 mg, Day 1): 67.2 h
LTB4 level at t = 24 hrs. ([6]; single dose 1000 mg): 1.9 ± 0.41 % of baseline
tE>50% (time above 50% LTB4 inhibition) ([6]; single dose 1000 mg, Day 1): >71.7 h
tE>90% (time above 90% LTB4 inhibition) ([6]; single dose 1000 mg, Day 1): 42.6 h
